In brackets after ≈: the same amount, converted by molar mass. One block for each compound: values may come before it.
Assays:
Experiment in all cases: ≥ marks a high value that may be exact or a test limit, other limits are often not marked, values filed in µg/mL are converted to µM
[1] = test system: Erwinia amylovora PMV 6076
[2] = test system: Pseudomonas syringae pv. actinidiae Psa3700.1.1
[3] = test system: Pseudomonas syringae pv. syringae EPS 94
[4] = test system: Xanthomonas arboricola pv. pruni CFBP 5563
[5] = test system: Xanthomonas campestris pv. Vesicatoria 2133-2
[6] = test system: Xanthomonas fragariae Xf349-9A
[7] = test system: Acinetobacter baumannii ATCC 19606
[8] = test system: Acinetobacter baumannii ATCC BAA-1605
[9] = test system: Acinetobacter baumannii ATCC BAA-747
[10] = test system: Acinetobacter baumannii NR-17777
[11] = test system: Acinetobacter baumannii NR-17784
[12] = test system: Acinetobacter baumannii NR-9667
[13] = test system: Pseudomonas aeruginosa 1017
[14] = test system: Pseudomonas aeruginosa 1109
[15] = test system: Pseudomonas aeruginosa 1133
[16] = test system: Pseudomonas aeruginosa ATCC 10145
[17] = test system: Pseudomonas aeruginosa ATCC 15442
[18] = test system: Pseudomonas aeruginosa ATCC 25619
[19] = test system: Pseudomonas aeruginosa ATCC 27853
[20] = test system: Pseudomonas aeruginosa ATCC 35032
[21] = test system: Pseudomonas aeruginosa ATCC 9027
[22] = test system: Pseudomonas aeruginosa ATCC 9721
[23] = test system: Pseudomonas aeruginosa ATCC BAA-1744
[24] = test system: Staphylococcus aureus ATCC 43300
[25] = test system: Staphylococcus aureus ATCC 6538
[26] = test system: Staphylococcus aureus ATCC BAA-44
[27] = test system: Staphylococcus aureus NRS 19
[28] = test system: Staphylococcus aureus NRS 1
[29] = test system: Staphylococcus aureus NRS 72
[30] = test system: Staphylococcus aureus NRS 77
[31] = test system: Staphylococcus aureus RN4220
[32] = test system: Staphylococcus aureus USA 100
[33] = test system: Staphylococcus aureus USA 200
[34] = test system: Staphylococcus aureus USA 300
[35] = test system: Staphylococcus aureus VRSA1
[36] = test system: Staphylococcus aureus VRSA2
[37] = test system: Staphylococcus epidermidis NRS 101
[38] = test system: Candida albicans ATCC 90028
[39] = test system: Candida parapsilosis ATCC 22019
[40] = test system: Malassezia furfur KCTC 7744
[41] = test system: Trichosporon beigelii KCTC 7707
[42] = test system: Neisseria gonorrhoeae F62
[43] = test system: Neisseria gonorrhoeae FA19
[44] = test system: Bacillus subtilis KCTC 3038
[45] = test system: Candida albicans ATCC 10231
[46] = test system: Cryptococcus neoformans ATCC 34881
[47] = test system: Enterococcus faecalis ATCC 29212
[48] = test system: Escherichia coli ATCC 27325
[49] = test system: Micrococcus luteus ATCC 10240
[50] = test system: Saccharomyces cerevisiae ATCC 44774
[51] = test system: Salmonella typhimurium KCTC 2370
[52] = test system: Staphylococcus aureus ATCC 15752

Compound: CC[C@H](C)[C@H](NC(=O)[C@H](C)NC(=O)[C@H](CCCCN)NC(=O)[C@H](CCCN=C(N)N)NC(=O)[C@H](CS)NC(=O)[C@H](CCCN=C(N)N)NC(=O)[C@H](CCCCN)NC(=O)[C@@H](NC(=O)[C@H](CC(N)=O)NC(=O)[C@H](CCCN=C(N)N)NC(=O)[C@H](CCC(=O)O)NC(=O)[C@H](CS)NC(=O)[C@H](CO)NC(=O)[C@@H](NC(=O)[C@H](CCCCN)NC(=O)[C@H](Cc1cnc[nH]1)NC(=O)[C@H](CC(N)=O)NC(=O)CNC(=O)[C@H](CC(C)C)NC(=O)[C@H](CCCCN)NC(=O)[C@H](CCCCN)NC(=O)[C@H](CCSC)NC(=O)[C@@H](N)CCCN=C(N)N)C(C)C)[C@@H](C)O)C(=O)O [RMKKLGNHKVSCERNTKRCRKAI]
MIC [38]: 10 µM (≈ 27.6 µg/mL)
MIC [39]: 10 µM (≈ 27.6 µg/mL)
MIC [40]: 14.1 µM (≈ 39 µg/mL)
MIC [41]: 20 µM (≈ 55.1 µg/mL)

Compound: CC(C)[C@H](NC(=O)[C@@H]1CSSC[C@H](N)C(=O)N[C@@H](Cc2ccc(O)cc2)C(=O)N[C@H]2CSSC[C@H](NC(=O)[C@H](Cc3ccccc3)NC(=O)[C@H](CCCNC(=N)N)NC(=O)[C@H](CCCNC(=N)N)NC(=O)[C@H](CCCNC(=N)N)NC2=O)C(=O)N[C@@H](C(C)C)C(=O)N1)C(=O)NCC(=O)N[C@@H](CCCNC(=N)N)C(N)=O [CYCRRRFCVCVGR]
MIC [42]: 2.7 µM (≈ 4.36 µg/mL)
MIC [43]: 6.56 µM (≈ 10.6 µg/mL)

Compound: CC(C)[C@H](NC(=O)CNC(=O)[C@H](CCC(N)=O)NC(=O)[C@@H](NC(=O)[C@@H](NC(=O)[C@@H]1CCCN1C(=O)[C@H](CCCN=C(N)N)NC(=O)[C@@H](NC(=O)[C@@H](NC(=O)[C@@H](N)CCCN=C(N)N)C(C)C)C(C)C)C(C)C)C(C)C)C(=O)N[C@@H](CCCCN)C(=O)N[C@@H](CCC(=O)O)C(=O)N[C@@H](CCCCN)C(=O)N[C@H](C(=O)N[C@@H](CCCN=C(N)N)C(=O)O)C(C)C [RVVRPVVQGVKEKVR]
MIC [44]: ≥ 36.6 µM
MIC [45]: > 36.6 µM
MIC [46]: ≥ 36.6 µM
MIC [47]: > 36.6 µM
MIC [48]: ≥ 36.6 µM
MIC [49]: ≥ 36.6 µM
MIC [19]: > 36.6 µM
MIC [50]: ≥ 36.6 µM
MIC [51]: ≥ 36.6 µM
MIC [52]: ≥ 36.6 µM

The next lines start with the values.

MIC [1]: ≥ 50 µM
MIC [2]: ≥ 50 µM
MIC [3]: ≥ 50 µM
MIC [4]: ≥ 50 µM
MIC [5]: ≥ 50 µM
MIC [6]: ≥ 50 µM
Compound: CC[C@H](C)[C@H](NC(=O)[C@H](CCC(=O)O)NC(=O)[C@H](CC(N)=O)NC(=O)[C@H](CC(C)C)NC(=O)[C@H](C)NC(=O)[C@H](CCCCN)NC(=O)[C@@H](N)CCC(N)=O)C(=O)N[C@@H](CC(N)=O)C(=O)N[C@@H](CCC(N)=O)C(=O)N[C@@H](Cc1ccccc1)C(N)=O [QKALNEINQF]

MIC [7]: 16 µM (≈ 24.9 µg/mL)
MIC [8]: ≥ 32 µM
MIC [9]: ≥ 64 µM
MIC [10]: 16 µM (≈ 24.9 µg/mL)
MIC [11]: ≥ 64 µM
MIC [12]: ≥ 32 µM
MIC [13]: ≥ 128 µM
MIC [14]: ≥ 128 µM
MIC [15]: ≥ 64 µM
MIC [16]: ≥ 128 µM
MIC [17]: ≥ 128 µM
MIC [18]: ≥ 64 µM
MIC [19]: 64 µM (≈ 99.5 µg/mL)
MIC [20]: ≥ 64 µM
MIC [21]: 64 µM (≈ 99.5 µg/mL)
MIC [22]: ≥ 64 µM
MIC [23]: ≥ 128 µM
MIC [24]: 16 µM (≈ 24.9 µg/mL)
MIC [25]: 16 µM (≈ 24.9 µg/mL)
MIC [26]: 16 µM (≈ 24.9 µg/mL)
MIC [27]: 8 µM (≈ 12.4 µg/mL)
MIC [28]: 16 µM (≈ 24.9 µg/mL)
MIC [29]: ≥ 32 µM
MIC [30]: 16 µM (≈ 24.9 µg/mL)
MIC [31]: 8 µM (≈ 12.4 µg/mL)
MIC [32]: 16 µM (≈ 24.9 µg/mL)
MIC [33]: 8 µM (≈ 12.4 µg/mL)
MIC [34]: 16 µM (≈ 24.9 µg/mL)
MIC [35]: ≥ 32 µM
MIC [36]: 16 µM (≈ 24.9 µg/mL)
MIC [37]: 8 µM (≈ 12.4 µg/mL)
Compound: CC[C@H](C)[C@H](NC(=O)[C@H](CCCN=C(N)N)NC(=O)[C@H](CCCN=C(N)N)NC(=O)[C@H](CC(C)C)NC(=O)[C@@H](N)Cc1c[nH]c2ccccc12)C(=O)N[C@@H](CCCCN)C(=O)N[C@@H](C)C(=O)N[C@@H](Cc1c[nH]c2ccccc12)C(=O)N[C@@H](CC(C)C)C(=O)N[C@@H](CCCN=C(N)N)C(=O)N[C@@H](CCCN=C(N)N)C(=O)O [WLRRIKAWLRR]
